Row | melting point | Structure (SMILES)
1 | 69 to 71 °C | CCCCCCCCNc1c(F)c(SCCc2ccc(C(=O)O)cc2)c(F)c(F)c1S(N)(=O)=O [MZ20-07, 4-[2-[2,3,6-Trifluoro-5-(octylamino)-4-sulfamoyl-phenyl]sulfanylethyl]benzoic acid]
2 | 186 to 188 °C | NS(=O)(=O)c1c(F)c(F)c(Sc2ccc(C(=O)O)cc2)c(F)c1NC1CCCCCCCCCCC1 [MZ21-02, 4-[3-(Cyclododecylamino)-2,5,6-trifluoro-4-sulfamoyl-phenyl]sulfanylbenzoic acid]
3 | 110 to 112 °C | CCCCCCNc1c(F)c(SCCc2ccc(C(=O)O)cc2)c(F)c(F)c1S(N)(=O)=O [MZ21-06, 4-[2-[2,3,6-Trifluoro-5-(hexylamino)-4-sulfamoyl-phenyl]sulfanylethyl]benzoic acid]
4 | 190 to 191 °C | NS(=O)(=O)c1c(F)c(F)c(SCc2ccc(C(=O)O)cc2)c(F)c1NC1CCCCCCCCCCC1 [MZ21-10, 4-[[3-(Cyclododecylamino)-2,5,6-trifluoro-4-sulfamoyl-phenyl]sulfanylmethyl]benzoic acid]
5 | 66 to 68 °C | CCCCCCCNc1c(F)c(SCCc2ccc(C(=O)O)cc2)c(F)c(F)c1S(N)(=O)=O [MZ21-11, 4-[2-[2,3,6-Trifluoro-5-(heptylamino)-4-sulfamoyl-phenyl]sulfanylethyl]benzoic acid]
6 | 66 to 67 °C | CCCCCCCCCNc1c(F)c(SCCc2ccc(C(=O)O)cc2)c(F)c(F)c1S(N)(=O)=O [MZ21-12, 4-[2-[2,3,6-Trifluoro-5-(nonylamino)-4-sulfamoyl-phenyl]sulfanylethyl]benzoic acid]
7 | 148 to 150 °C | NS(=O)(=O)c1c(F)c(F)c(Sc2ccc(CC(=O)O)cc2)c(F)c1NC1CCCCCCCCCCC1 [MZ21-18, 2-[4-(3-(Cyclododecylamino)-2,5,6-trifluoro-4-sulfamoylphenyl)sulfanylphenyl]acetic acid]
8 | 157 to 158 °C | NS(=O)(=O)c1c(F)c(F)c(SCc2ccc(C(=O)O)cc2)c(F)c1NCC1CCCCCCC1 [MZ21-23, 4-[[3-(Cyclooctylmethylamino)-2,5,6-trifluoro-4-sulfamoyl-phenyl]sulfanylmethyl]benzoic acid]
9 | 176 °C | NS(=O)(=O)c1c(F)c(F)c(SCc2ccc(C(=O)O)cc2)c(F)c1NC1CCCCCCCCC1 [MZ21-25, 4-[[3-(Cyclodecylamino)-2,5,6-trifluoro-4-sulfamoyl-phenyl]sulfanylmethyl]benzoic acid]
10 | 109 to 111 °C | NS(=O)(=O)c1c(F)c(F)c(SCc2cccc(C(=O)O)c2)c(F)c1NC1CCCCCCCCCCC1 [MZ21-26, 3-[[3-(Cyclododecylamino)-2,5,6-trifluoro-4-sulfamoyl-phenyl]sulfanylmethyl]benzoic acid]
11 | 149 °C | CCCC(CCC)CCNc1c(F)c(SCc2ccc(C(=O)O)cc2)c(F)c(F)c1S(N)(=O)=O [MZ21-35, 4-[[2,3,6-Trifluoro-5-(3-propylhexylamino)-4-sulfamoyl-phenyl]sulfanylmethyl]benzoic acid]
12 | 133 °C | CCC(C)C(C)CCNc1c(F)c(SCc2ccc(C(=O)O)cc2)c(F)c(F)c1S(N)(=O)=O (stereo not drawn) [MZ21-40, 4-[[3-(3,4-Dimethylhexylamino)-2,5,6-trifluoro-4-sulfamoyl-phenyl]sulfanylmethyl]benzoic acid]
13 | 123 to 125 °C | NS(=O)(=O)c1c(F)c(F)c(Sc2cccc(C(=O)O)c2)c(F)c1NC1CCCCCCCCCCC1 [MZ22-07, 3-[3-(Cyclododecylamino)-2,5,6-trifluoro-4-sulfamoyl-phenyl]sulfanylbenzoic acid]
14 | 85 °C | NS(=O)(=O)c1c(F)c(F)c(Sc2ccccc2C(=O)O)c(F)c1NC1CCCCCCCCCCC1 [MZ22-10, 2-[3-(Cyclododecylamino)-2,5,6-trifluoro-4-sulfamoyl-phenyl]sulfanylbenzoic acid]
15 | 166 to 168 °C | NS(=O)(=O)c1c(F)c(F)c(SCCc2ccc(C(=O)O)cc2)c(F)c1NC1CCCCCCC1 [VR16-10, 4-[2-[3-(Cyclooctylamino)-2,5,6-trifluoro-4-sulfamoyl-phenyl]sulfanylethyl]benzoic acid]

— patent US20240000736A1, “INHIBITION OF PROTEIN AMYLOID AGGREGATION USING FLUORINATED BENZENESULFONAMIDES” (Vilnius University, priority 2022, published 2024)
